# Counter-ions that a name gives are not always drawn.
# How the values were obtained:
# ribonucleotide reductase = ribonucleotide reductase inhibition (conversion of CDP to dCDP), Table 1; assay type: biochemical; details: enzyme partially purified from HeLa cells or Ehrlich ascites cells; 40 min, 30° C; read-out: ID50 (inhibitory dose which inhibits ribonucleotide reductase by 50%)
# Description: Compounds represented by formula I above have the ability to inhibit ribonucleotide reductase, an enzyme involved in the reductive conversion of ribonucleotides to deoxyribonucleotides. This enzymatic reaction is a rate controlling step in the biosynthetic pathway leading to DNA and cell replication. In general, the ribonucleotide reductase level is closely correlated with cellular replication. […] In addition, the compounds have shown activity against P388 leukemia and B16 melanoma.
# The results of biological tests of compounds according to formula I are incorporated in a series of Tables which follow. Table 1 gives ribonucleotide reductase data for representative compounds of formula I. In the table, column 1 gives the substitution pattern in the benzene- ring, column 2, the (CHR")m group, column 3, the [drawing 5] group, and column 4, the ID50 (inhibitory dose in micromolar concentration which inhibits ribonucleotide reductase by 50%) in μmoles.
# In the above determination of ID50 's in Table 1, ribonucleotide reductase is partially purified from HeLa cells or Ehrlich ascites cells by a procedure similar to that set forth by Elford et al. J. Biol. Chem., 245, 5228 (1970). The activity of the enzyme was measured by a slightly modified assay procedure originally developed by Reichard et al. id, 236, 1150 (1969). This procedure measures the conversion of CDP to dCDP. The assay mixture (0.34 ml.) contains 3 μCi of [^3 H] CDP (specific activity […]), 3.3 μmole ATP, 5.9 μmoles magnesium chloride, 8.8 μmoles Hepes buffer at pH=7.5, 15 μmoles dithiothreitol and enzyme protein between 0.4 and 1.3 mg. Incubation was provided for forty minutes at 30° C. Ion exchange chromatography employing Dowex 50 (H^+) resin is used to separate the product from the substrate. The inhibitors were dissolved in water and a mixture of water and up to 1% ethanol or 2% dimethylsulfoxide, neither one of which inhibited the enzyme at these concentrations. Each inhibitor was tested at a minimum of three concentrations and the active compounds reassayed at least one additional time. ID50 's (μmolar) were estimate from graphs summarizing results for each compound.
# [1] = tested on: superoxide (xanthine oxidase reaction or human leukocytes); assay: effect on superoxide generation in vitro; assay type: biochemical
# Protocol: The rate of production of superoxide from the xanthine oxidase reaction or from human leukocytes activated with phorbol myristate acetate was measured spectrophotometrically as the superoxide dismutase (SOD)-inhibitable portion of the reduction of ferricytochrome c or nitroblue tetrazolium (NBT). All assays were carried out at 37° C., pH 7.1. For the superoxide production by the xanthine oxidase reaction, a concentration of 0.04 U/ml of xanthine oxidase was used with 0.1 mM xanthine as substrate. Absorbances were measured in the presence of 30 U/ml of SOD and in its absence. The indicators were either ferricytochrome c or NBT in a concentration of 20 uM. The initial rate of reduction of NBT was monitored at 530 nm and that of cytochrome c at 550 nm. Extinction coefficients were 21.4×10 ^3 /M cm for cytochrome c and 17.9×10^3 /M cm for NBT. The initial rate of production of superoxide from leukocytes was measured using a concentration of 20 uM ferricytochrome c or NBT as described above in the presence and absence of 30 U/ml of SOD.
# L1210 = assay: antileukemia activity of nitriles vs L1210, Table 8; assay type: in vivo
# Description: Table 8 which follows gives anti-tumor data vs L-1210 and P-388 leukemia for these novel nitriles.
# L1210 leukemia = assay: antitumor activity in L1210 leukemia (percent increase in survival time), Table 2; assay type: in vivo, mice; details: 8 days; for ILS at 100 mg/kg: 100 mg/kg ip daily; for ILS at 200 mg/kg: 200 mg/kg ip daily
# Protocol: Testing of the compounds of this invention against L-1210 lymphoid leukemia were carried out as follows: L-1210 leukemia was maintained by weekly passage of 10^5 L-1210 cells intraperitoneally into DBA/2 mice. Diluted ascitic fluid, 0.1 ml. (10^5 cells), was administered ip to female B6D2 F1 mice weighing about 20 g. Drugs were administered ip 24 hours after tumor transplantation and injections were continued daily for a total of eight days. A group of control mice receiving only the injection medium were maintained. Table 2 which follows gives the antitumor activity against L-1210 leukemia for certain compounds of this invention. In the table, column 1 gives the name of the compound, column 2 the dose in mg./kg., and column 3 the percent increase in survival time over controls at each dose level.
# [2] = free radical scavenging ability (destruction of diphenylpicrylhydrazyl), Table 7; details: 100 μM diphenylpicrylhydrazyl in acetone; test compound 25 μM, 2.5 μM (footnote)
# Description: It is believed that the antineoplastic activity of the compounds of this invention is due in parts to their ability to scavenge free-radicals. Additionally, the compounds of this invention are cancer protective agents and this utility also may be a manifestation of their free-radical scavenging capability. Free-radical scavenging agents may also be useful in detoxifying mammals in whom an excess of free radicals is a cause and/or result of the toxicity. Other possible uses of free radical scavengers are to inhibit protaglandin transformation, leucotriene interconversion and lipogenesis, to act as inflammatory modulators and as food additive or preservatives to prevent lipid oxidation. The free radical scavenging ability of the compounds of the invention was determined by measuring the destruction of the stable free radical, diphenylpicrylhydrazyl, in the presence of the test compound in a manner similar to that reported by […] and Herzmann, Naturwiss, 47, 133-134 (1960). […] The test compound was added at a final concentration of 25 μM and the rate of reduction of absorpotion at […] was observed. Table 7 below gives the free radical scavenging abilities of the compounds of this invention expresses as the initial rate of decrease in optical density units/min.
# [3] = Mus musculus, L1210, 192 h, 300 mg/kg ip daily
compound,measurement,setting,value
NC(=NO)c1cccc(O)c1O,IC50,ribonucleotide reductase,18 µM
"3,4,5-TRIHYDROXYBENZAMIDATE",Cytochrome C Reduction,[1]; 10 uM compound,4.89 nmol
same,NBT Reduction,[1]; 10 uM compound,7.60 nmol
same,Cytochrome C Reduction,[1]; 20 uM compound,3.21 nmol
same,NBT Reduction,[1]; 20 uM compound,6.10 nmol
same,Cytochrome C Reduction,[1]; 50 uM compound,2.22 nmol
same,NBT Reduction,[1]; 50 uM compound,3.67 nmol
same,Cytochrome C Reduction,[1]; 100 uM compound,1.91 nmol
same,NBT Reduction,[1]; 100 uM compound,1.78 nmol
same,NBT Reduction,[1]; 200 uM compound,1.45 nmol
same,NBT Reduction,[1]; 500 uM compound,1.23 nmol
"N#Cc1cc(O)c(O)c(O)c1O [2,3,4,5-tetrahydroxybenzonitrile]",% Increase in Survival Time,L1210; 163 mg/kg,48.4%
same,% Increase in Survival Time,L1210; 230 mg/kg,Toxic
"NC(=NO)c1ccc(O)c(O)c1O [2,3,4-trihydroxybenzamidoxime-HCl, 2,3,4-trihydroxybenzamidoxime]",% Increase in Survival Time,L1210 leukemia; 300 mg/kg ip daily,toxic
same,ILS at 100 mg/kg,"L1210 leukemia; Mus musculus, L1210, 192 h",38.9%
same,ILS at 200 mg/kg,"L1210 leukemia; Mus musculus, L1210, 192 h",36.1%
same,ILS at 218 mg/kg,"L1210 leukemia; Mus musculus, L1210, 192 h, 218 mg/kg ip daily",67.7%
"N#Cc1ccc(O)c(O)c1O [2,3,4-trihydroxybenzonitrile]",% Increase in Survival Time,L1210; 50 mg/kg,11.0%
same,% Increase in Survival Time,L1210; 100 mg/kg,26.0%
same,% Increase in Survival Time,L1210; 155 mg/kg,12.1%
same,% Increase in Survival Time,L1210; 259 mg/kg,Toxic
same,% Increase in Survival Time,L1210; 327 mg/kg,Toxic
"Cl.NC(=NO)c1cccc(O)c1O [2,3-dihydroxybenzamidoxime-HCl]",% Increase in Survival Time,L1210 leukemia; 300 mg/kg ip daily,toxic
"ON=C(NO)c1cc(O)c(O)c(O)c1 [3,4,5-trihydroxybenzohydroxyamidoxime-HCl]",ILS at 100 mg/kg,"L1210 leukemia; Mus musculus, L1210, 192 h",47.2%
same,ILS at 200 mg/kg,"L1210 leukemia; Mus musculus, L1210, 192 h",55.6%
same,ILS at 300 mg/kg,L1210 leukemia; [3],63.9%
same,initial rate of decrease in optical density (518 nm),[2],0.882 units/min.
"Cl.N=C(N)c1ccc(O)c(O)c1 [3,4-dihydroxybenzamidine-HCl]",ILS at 52 mg/kg,"L1210 leukemia; Mus musculus, L1210, 192 h, 52 mg/kg ip daily",26.8%
same,ILS at 100 mg/kg,"L1210 leukemia; Mus musculus, L1210, 192 h",58.3%
same,ILS at 104 mg/kg,"L1210 leukemia; Mus musculus, L1210, 192 h, 104 mg/kg ip daily",34.1%
same,ILS at 200 mg/kg,"L1210 leukemia; Mus musculus, L1210, 192 h",41.7%
same,ILS at 300 mg/kg,L1210 leukemia; [3],47.2%
same,ILS at 400 mg/kg,"L1210 leukemia; Mus musculus, L1210, 192 h, 400 mg/kg ip daily",47.8%
same,ILS at 603 mg/kg,"L1210 leukemia; Mus musculus, L1210, 192 h, 603 mg/kg ip daily",83%
same,initial rate of decrease in optical density (518 nm),[2],1.721 units/min.
"ON=C(NO)c1ccc(O)c(O)c1 [3,4-dihydroxybenzohydroxyamidoxime-HCl, 3,4-Dihydroxybenzohydroxyamidoxime hydrochloride]",ILS at 155 mg/kg,"L1210 leukemia; Mus musculus, L1210, 192 h, 155 mg/kg ip daily",39%
same,ILS at 200 mg/kg,"L1210 leukemia; Mus musculus, L1210, 192 h",47.8%
same,ILS at 300 mg/kg,L1210 leukemia; [3],41.3%
"N#Cc1ccc(O)c(O)c1 [3,4-dihydroxybenzonitrile]",% Increase in Survival Time,L1210; 47.6 mg/kg,4.7%
same,% Increase in Survival Time,L1210; 95.2 mg/kg,15.6%
same,% Increase in Survival Time,L1210; 196 mg/kg,Toxic
"NC(=NO)C(O)c1ccc(O)c(O)c1.O (stereo not shown) [3,4-dihydroxymandelamidoxime, 3,4-dihydroxymandelamidoxime monohydrate]",ILS at 435 mg/kg,"L1210 leukemia; Mus musculus, L1210, 192 h, 435 mg/kg ip daily",45.2%
same,ILS at 606 mg/kg,"L1210 leukemia; Mus musculus, L1210, 192 h, 606 mg/kg ip daily",45.2%
same,initial rate of decrease in optical density (518 nm),[2],0.383 units/min.
NC(=NO)c1ccc(O)c(O)c1 [drawing 8],IC50,ribonucleotide reductase,8 µM
CCOC(=N)c1ccc(O)c(O)c1 [drawing 9],IC50,ribonucleotide reductase,12 µM
N=C(N)c1ccc(O)c(O)c1 [drawing 10],IC50,ribonucleotide reductase,20 µM
ON=C(NO)c1ccc(O)c(O)c1 [drawing 11],IC50,ribonucleotide reductase,40 µM
NC(=NO)c1cc(O)c(O)c(O)c1 [drawing 12],IC50,ribonucleotide reductase,5 µM
CCOC(=N)c1cc(O)c(O)c(O)c1 [drawing 13],IC50,ribonucleotide reductase,15 µM
N=C(N)c1cc(O)c(O)c(O)c1 [drawing 14],IC50,ribonucleotide reductase,25 µM
ON=C(NO)c1cc(O)c(O)c(O)c1 [drawing 16],IC50,ribonucleotide reductase,25 µM
NC(=NO)c1ccc(O)c(O)c1O [drawing 17],IC50,ribonucleotide reductase,7 µM
"CCOC(=N)c1ccc(O)c(O)c1 [ethyl 3,4-dihydroxybenzamidate-HCl, ethyl 3,4-dihydroxybenzamidate hydrochloride]",% Increase in Survival Time,L1210 leukemia; 218 mg/kg ip daily,toxic
same,% Increase in Survival Time,L1210 leukemia; 327 mg/kg ip daily,toxic
same,% Increase in Survival Time,L1210 leukemia; 435 mg/kg ip daily,toxic
same,initial rate of decrease in optical density (518 nm),[2],0.706 units/min.
N#Cc1c(O)c(O)c(O)c(O)c1O [pentahydroxybenzonitrile],% Increase in Survival Time,L1210; 34.3 mg/kg,14.2%
same,% Increase in Survival Time,L1210; 51.5 mg/kg,0%
same,% Increase in Survival Time,L1210; 77.2 mg/kg,Toxic
same,% Increase in Survival Time,L1210; 116.0 mg/kg,Toxic

# — US5183828A, “Polyhydroxybenzoic acid derivatives” (priority 1990, dated 1993)
